Experimental findings from ChEMBL document CHEMBL1144575, “Design and synthesis of 3,5-disubstituted benzamide analogues of DNK333 as dual NK1/NK2 receptor probes” (Bioorg Med Chem Lett, 2007) are described below.

The source made the active and inactive calls. The rule behind the calls is not given here.

Assay type in all cases: functional, tissue-based
The target of experiment [1] is T1, Substance-K receptor (Cavia porcellus) (UniProt Q64077).
T1 sequence (whole entry): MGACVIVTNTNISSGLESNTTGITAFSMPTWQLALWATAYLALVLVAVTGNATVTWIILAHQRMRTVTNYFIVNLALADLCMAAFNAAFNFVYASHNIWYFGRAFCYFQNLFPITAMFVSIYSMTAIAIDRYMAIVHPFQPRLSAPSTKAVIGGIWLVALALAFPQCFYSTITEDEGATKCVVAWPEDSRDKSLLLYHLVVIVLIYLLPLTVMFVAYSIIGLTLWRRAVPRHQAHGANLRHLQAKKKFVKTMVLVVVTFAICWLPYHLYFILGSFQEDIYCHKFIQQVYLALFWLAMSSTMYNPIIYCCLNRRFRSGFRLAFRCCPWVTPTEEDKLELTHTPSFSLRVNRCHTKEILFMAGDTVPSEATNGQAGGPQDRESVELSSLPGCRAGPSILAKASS
Description: Antagonist activity at NK2 receptor in guinea pig trachea as inhibition of [beta-Ala8]NKA(4-10)-induced bronchoconstriction relative to control. Also noted: scale not given: the % may be the effect or the level left.

Experiment [2] deals with Substance-P receptor (Cavia porcellus) (UniProt P30547). The experiment can be described thus: Antagonist activity at NK1 receptor in guinea pig trachea as inhibition of ASM-SP-induced bronchoconstriction relative to control. Also noted: scale not given: the % may be the effect or the level left.
Experiment [3] shares this target. Description: Antagonist activity at NK1 receptor in guinea pig trachea as inhibition of ASM-SP-induced bronchoconstriction.
In experiment [4] the target is T1, Substance-K receptor (Cavia porcellus). Description: Antagonist activity at NK2 receptor in guinea pig trachea as inhibition of [beta-Ala8]NKA(4-10)-induced bronchoconstriction.
In experiment [5] the target is Substance-P receptor (Cavia porcellus) (UniProt P30547). Description: Antagonist activity at NK1 receptor in guinea pig trachea as inhibition of ASM-SP-induced bronchoconstriction up to 1 uM.
The target in experiment [6] is T1, Substance-K receptor (Cavia porcellus). The experiment can be described thus: Antagonist activity at NK2 receptor in guinea pig trachea as inhibition of [beta-Ala8]NKA(4-10)-induced bronchoconstriction up to 1 uM.

Chain of Substance-P receptor (Cavia porcellus) (P30547 whole entry): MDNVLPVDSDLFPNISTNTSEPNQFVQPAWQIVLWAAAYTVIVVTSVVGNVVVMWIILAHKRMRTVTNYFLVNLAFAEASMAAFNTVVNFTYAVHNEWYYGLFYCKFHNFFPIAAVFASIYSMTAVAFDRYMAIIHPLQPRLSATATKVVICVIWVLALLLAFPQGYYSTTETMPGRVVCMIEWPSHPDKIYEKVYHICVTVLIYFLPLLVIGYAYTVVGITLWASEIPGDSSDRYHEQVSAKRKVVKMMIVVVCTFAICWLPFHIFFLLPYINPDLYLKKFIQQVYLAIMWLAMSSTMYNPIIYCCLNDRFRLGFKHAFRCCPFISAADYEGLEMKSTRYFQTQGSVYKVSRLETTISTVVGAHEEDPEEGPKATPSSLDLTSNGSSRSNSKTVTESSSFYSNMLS

As a reminder, the pKb is the negative decadic logarithm of the Kb, by convention in mol/L. `CN(C(=O)c1cc(C(F)(F)F)cc(C(F)(F)F)c1)[C@@H](/C=C/C(=O)N[C@@H]1CCCCNC1=O)Cc1ccc(Cl)c(Cl)c1`: the figures for the Activity in experiment [1] and in experiment [2] were 97% and 89.4%, respectively. The pKb in experiment [3] was determined as 9.2; in experiment [4] it was 7.43.
For the molecule `COC(=S)Nc1cc(NC(=S)OC)cc(C(=O)N(C)[C@@H](/C=C/C(=O)N[C@@H]2CCCCNC2=O)Cc2ccc(Cl)c(Cl)c2)c1`, the result in experiment [5] and in experiment [6] was inactive.
With `CN(C(=O)c1cc(N)cc(N)c1)[C@@H](/C=C/C(=O)N[C@@H]1CCCCNC1=O)Cc1ccc(Cl)c(Cl)c1`, the outcome in experiment [5] and in experiment [6] was inactive.
On to `CC(=O)Nc1cc(NC(C)=O)cc(C(=O)N(C)[C@@H](/C=C/C(=O)N[C@@H]2CCCCNC2=O)Cc2ccc(Cl)c(Cl)c2)c1`, for which the result in experiment [5] and in experiment [6] was inactive.
`CN(C(=O)c1cc(N=C=S)cc(N=C=S)c1)[C@@H](/C=C/C(=O)N[C@@H]1CCCCNC1=O)Cc1ccc(Cl)c(Cl)c1`: the outcome in experiment [5] and in experiment [6] was inactive.
On to `CN(C(=O)c1cc([N+](=O)[O-])cc([N+](=O)[O-])c1)[C@@H](/C=C/C(=O)N[C@@H]1CCCCNC1=O)Cc1ccc(Cl)c(Cl)c1`, for which the Activity in experiment [1] and in experiment [2] was 96.1% in each case. Besides, the pKb in experiment [3] stood at 8.4; in experiment [4], 7.87.
Take `CN(C(=O)c1cc(NC(=O)CBr)cc(NC(=O)CBr)c1)[C@@H](/C=C/C(=O)N[C@@H]1CCCCNC1=O)Cc1ccc(Cl)c(Cl)c1`: the outcome in experiment [5] and in experiment [6] was inactive.
